Measured values: patent publication US20170348269A1, “TREATMENT OF UREA CYCLE DISORDERS IN NEONATES AND INFANTS” (Horizon Therapeutics, LLC, priority 2016, published 2017)
Where “and” joins values, the source holds several entries; their conditions need not be identical. Equal values may be shown once.

Assays:
[1] = HPN-100-012 switch-over study, pharmacokinetics of HPN-100 and NaPBA in pediatric UCD patients; format: in vivo, human; conditions: HPN-100-012 (N = 15), TID with meals
Experimental: HPN-100-012, an open-label, fixed sequence, switch-over study of the safety, PK and efficacy of HPN-100 compared to NaPBA in patients with UCDs, with a 12-month safety extension part. The switch-over part of the study and the 12-month safety extension are complete. The switch-over part was conducted at 7 U.S. centers and enrolled 15 pediatric UCD patients between 29 days and <6 year of age, all of whom completed the study. After review of all the safety data by the DSMB, 8 additional subjects were enrolled in the study after the switch-over phase was completed. The primary efficacy endpoint was the 24-hour AUC (area under the curve) for blood ammonia on Day 1 compared with Day 10.
The pharmacokinetics of the short term studies can be summarized as follows. Mean exposure levels of HPN-100 metabolites PBA, PAA, and PAGN after doses of HPN-100 and NaPBA with meals (TID) in pediatric (29 days to 17 years of age) UCD patients in HPN-100-005 and HPN-100-012 studies are summarized below. The mean exposure to PBA, the parent metabolite, and mean exposure to PAGN, the terminal metabolite, show no systematic variation across age groups, while PAA exposure tended to decrease with increasing age, a finding consistent with those from population PK modeling which indicate that the rate of clearance/metabolism of PAA varies directly with body size. While systemic metabolite exposure, assessed as peak plasma concentration (Cmax) or AUC, is generally similar for HPN-100 and NaPBA, the minimum concentration (Cmin-ss) was higher—and/or percent-fluctuation less—for plasma PAGN, a finding consistent with slower gastrointestinal absorption of PBA when administered orally as HPN-100.

[2] = system: blood ammonia in pediatric patients with UCDs; assay: HPN-100-012 open-label fixed sequence switch-over study, blood ammonia control; format: in vivo, human
Description: HPN-100-012, an open-label, fixed sequence, switch-over study of the safety, PK and efficacy of HPN-100 compared to NaPBA in patients with UCDs, with a 12-month safety extension part. […] After review of all the safety data by the DSMB, 8 additional subjects were enrolled in the study after the switch-over phase was completed. The primary efficacy endpoint was the 24-hour AUC (area under the curve) for blood ammonia on Day 1 compared with Day 10.

[3] = system: venous ammonia in pediatric patients with UCDs; assay: Studies 4/4E and 5, uncontrolled open-label studies in children under 2 years of age; format: in vivo, human
Experimental: Uncontrolled, open-label studies were conducted to assess monthly ammonia control and hyperammonemic crisis of RAVICTI® in pediatric patients with UCDs 2 months to less than 2 years of age (Study 4/4E, Study 5, and Study 6). Patients in Study 5 previously participated in Study 4/4E. A total of 17 pediatric patients with UCDs aged 2 months to less than 2 years participated in the studies.
A total of 7 patients with UCDs aged 2 months to less than 2 years participated in Studies 4/4E and 5. In these studies, there were 7, 6, 6, 6 and 3 pediatric patients who completed 1, 6, 9, 12 and 18 months, respectively (mean and median exposure of 15 and 17 months, respectively). Patients were converted from sodium phenylbutyrate to RAVICTI®. The dosage of RAVICTI® was calculated to deliver the same amount of PBA as the sodium phenylbutyrate dosage the patients were taking when they entered the study.
Patients received a mean RAVICTI® dose of 7.5 mL/m^2/day (8.2 g/m^2/day), with doses ranging from 3.3 to 12.3 mL/m^2/day (3.7 to 13.5 g/m^2/day). Patients were dosed three times a day (n=3) or four times a day (n=4).
Venous ammonia levels were monitored on days 1, 3 and 10 in Study 4 and at week 1 in Study 4E. Two patients had day 1 ammonia values of 122 micromol/L and 111 micromol/L respectively, neither had associated signs and symptoms of hyperammonemia.
During the extension period, venous ammonia levels were monitored monthly. Ammonia values across different laboratories were normalized (transformed) to a common normal pediatric range of 28 to 57 micromol/L for comparability. The mean venous ammonia values in pediatric patients at month 1, 3, 6, 9 and 12 were 58, 49, 34, 65, and 31 micromol/L during treatment with RAVICTI®, respectively.
Three patients reported a total of 3 hyperammonemic crises, as defined in Study 6. Hyperammonemic crises were precipitated by gastroenteritis, vomiting, infection or no precipitating event (one patient). There were 4 patients who had one venous ammonia level that exceeded 100 micromol/L which was not associated with a hyperammonemic crisis.

ammonia in UCD patients = assay: Open label fixed-sequence switch-over comparison of RAVICTI to NaPBA, 4 patients aged 2 months to 2 years; format: in vivo, human
Description: While the U.S. approval of RAVICTI® was based on its evaluation in 6 clinical trials involving over 100 adult and pediatric UCD patients aged 2 months old and above, only 7 patients aged 2 months to 2 years were enrolled in these studies. […] PAA exposure, also assessed as 24-hour area under the curve, was very similar. However, the number of patients in this age group studied at the time of RAVICTI's approval was small and considerable patient-to-patient variability was observed.

[4] = system: pancreatic lipase-related protein; conditions: cited from earlier work
[5] = original scale, predefined non-inferiority upper margin 1.25
[6] = Studies 4/4E, 5 extension period, normalized to 28 to 57 micromol/L

SMILES: O=C(CCCc1ccccc1)OCC(COC(=O)CCCc1ccccc1)OC(=O)CCCc1ccccc1 [HPN-100, benzenebutanoic acid, 1′,1″-(1,2,3-propanetriyl) ester]
- Plasma PAA % Fluctuation ([1]; arithmetic mean): 2141%
- Plasma PAA AUC0-24 ([1]; arithmetic mean): 1096 µg·h/mL
- Plasma PAA CLss/F ([1]; arithmetic mean): 25538 mL/min
- Plasma PAGN CLss/F ([1]; arithmetic mean): 10830 mL/min
- Plasma PBA CLss/F ([1]; arithmetic mean): 22610 mL/min
- Plasma PBA Cmin-ss ([1]; arithmetic mean): 750 ng/mL
- Plasma PAA Cmax-ss ([1]; arithmetic mean (CV %)): 84700 ng/mL
- Plasma PAA Cmin-ss ([1]; arithmetic mean (CV %)): 26100 ng/mL
- Plasma PAGN Cmin-ss ([1]; arithmetic mean (CV %)): 19900 ng/mL
- Mean blood ammonia at the 12-hour time point ([2]; HPN-100 Day 10, NaPBA Day 1, highest value for both treatments): 28.24 µmol/L
- Mean blood ammonia at the 8-h time point ([2]; HPN-100 Day 10, lowest value on HPN-100): 23.20 µmol/L
- 24-hour AUC for blood ammonia, HPN-100 vs NaPBA, upper 90% CI [2, 5]: 1.002
- 24-hour AUC for blood ammonia, HPN-100 vs NaPBA, upper 95% CI [2, 5]: 1.055
- ammonia AUC, median difference between treatments (HPN-100 vs NaPBA) ([2]; pediatric UCD patients 29 days to <6 years): -37.84 µmol·h/L
- 24-hour AUC for blood ammonia (primary efficacy endpoint), HPN-100 compared to NaPBA ([2]; pediatric UCD patients aged 29 days to <6 years, Day 1 (NaPBA) vs Day 10 (HPN-100), non-inferiority upper margin 1.25): non-inferior
- Blood ammonia levels postprandially at any given time point, HPN-100 (Day 10) vs NaPBA (Day 1) ([2]; postprandial): directionally lower
- patients with one venous ammonia level exceeding 100 micromol/L not associated with a hyperammonemic crisis ([3]; Studies 4/4E, 5): 4 patients
- total hyperammonemic crises ([3]; Studies 4/4E, 5, reported by three patients): 3
- mean venous ammonia, month 1 [3, 6]: 58 µmol/L
- mean venous ammonia, month 3 [3, 6]: 49 µmol/L
- mean venous ammonia, month 6 [3, 6]: 34 µmol/L
- mean venous ammonia, month 9 [3, 6]: 65 µmol/L
- mean venous ammonia, month 12 [3, 6]: 31 µmol/L
- day 1 ammonia values of two individual patients ([3]; Studies 4/4E, no associated signs and symptoms of hyperammonemia, listed as RAVICTI®): 122 µmol/L and 111 µmol/L
- patients with venous ammonia levels less than 100 micromol/L at day 10/week 1 ([3]; Studies 4/4E, of the 7 patients): six
- day 10 ammonia value of the remaining patient ([3]; Study 4, asymptomatic): 168 µmol/L
- PAA exposure assessed as 24-hour area under the curve, RAVICTI vs NaPBA (ammonia in UCD patients): very similar
- mean ammonia exposure assessed at 24-hour area under the curve, RAVICTI vs NaPBA (ammonia in UCD patients): non-inferior
- hydrolysis in vitro by pancreatic lipase-related protein [4]: hydrolyze
